Changes are numbered by the printed parent chain. pEC50: −log10 of the molar value.
Columns and labels:
rat P2X2 [1] = target: T1, rat P2X2 (Rattus norvegicus, UniProt P49653); test: action potential recording from Drosophila taste neurons; confirmed by whole-cell voltage clamp in HEK […] cells at […]
T1 construct: gene P2rx2; rat P2X2 with C-terminal mCherry fusion
T1 sequence (P49653 1-472): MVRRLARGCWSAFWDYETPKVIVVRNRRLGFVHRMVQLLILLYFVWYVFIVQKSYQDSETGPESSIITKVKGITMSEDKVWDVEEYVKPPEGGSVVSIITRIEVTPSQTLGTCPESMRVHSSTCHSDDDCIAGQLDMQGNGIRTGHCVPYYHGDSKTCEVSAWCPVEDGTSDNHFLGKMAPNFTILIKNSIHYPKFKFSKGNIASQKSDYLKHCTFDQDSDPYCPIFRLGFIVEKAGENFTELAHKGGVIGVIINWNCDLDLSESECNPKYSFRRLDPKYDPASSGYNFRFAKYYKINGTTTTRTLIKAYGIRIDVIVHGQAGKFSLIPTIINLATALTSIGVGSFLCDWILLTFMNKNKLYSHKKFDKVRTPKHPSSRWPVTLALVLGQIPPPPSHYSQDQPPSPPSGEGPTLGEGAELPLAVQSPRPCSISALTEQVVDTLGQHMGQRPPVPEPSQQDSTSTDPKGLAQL

rat P2X2 [2] = target: T2, rat P2X2 (Rattus norvegicus, UniProt P49653, T184I); test: action potential recording from Drosophila taste neurons, tested at […]; type: cell-based
T2 construct: gene P2rx2; T184I rP2X2::GFP
T2 sequence (P49653 1-472 T184I): T1 sequence (P49653 1-472) with T184I

rat P2X2 [3] = target: T1, rat P2X2; test: action potential recording from Drosophila taste neurons, tested at […]; partial agonist; type: cell-based
rat P2X2 [4] = target: T1, rat P2X2; test: action potential recording from Drosophila taste neurons expressing the receptor; also whole-cell voltage clamp in HEK […] cells
rat P2X2 [5] = target: T2, rat P2X2; test: action potential recording from Drosophila taste neurons expressing the mutant
human P2X2 = target: T3, human P2X2 (Homo sapiens, UniProt Q9UBL9); test: action potential recording from Drosophila taste neurons, […] ATP; type: cell-based
T3 construct: gene P2RX2; human P2X2 variant A with C-terminal mCherry fusion tag
T3 sequence (Q9UBL9 1-471): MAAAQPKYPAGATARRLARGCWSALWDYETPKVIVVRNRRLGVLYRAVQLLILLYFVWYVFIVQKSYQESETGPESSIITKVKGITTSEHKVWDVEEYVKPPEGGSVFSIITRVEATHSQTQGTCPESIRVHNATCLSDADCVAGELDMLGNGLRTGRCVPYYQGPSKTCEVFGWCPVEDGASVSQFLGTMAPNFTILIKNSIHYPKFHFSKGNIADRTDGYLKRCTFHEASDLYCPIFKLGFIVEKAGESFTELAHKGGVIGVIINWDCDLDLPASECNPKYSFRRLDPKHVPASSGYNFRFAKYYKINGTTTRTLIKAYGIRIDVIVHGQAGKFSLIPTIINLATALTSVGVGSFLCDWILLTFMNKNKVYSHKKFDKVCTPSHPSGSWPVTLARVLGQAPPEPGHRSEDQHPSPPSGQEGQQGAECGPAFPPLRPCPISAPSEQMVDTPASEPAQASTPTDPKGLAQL

rat P2X2 [6] = target: T1, rat P2X2; test: action potential recording from Drosophila taste neurons, tested at […]; type: cell-based

In the case of `Nc1nc(F)nc2c1ncn2[C@@H]1O[C@H](COP(=O)(O)OP(=O)(O)OP(=O)(O)O)[C@@H](O)[C@H]1O` [2F-ATP], the pEC50 (rat P2X2 [1]) was 4.76 and the “action potential recording from Drosophila taste neurons, tested at 100 μM” value (rat P2X2 [2]) was “flies expressing rat P2X2^T184I and found that ATPγS, ATPαS and 2F-ATP elicited responses similar to ATP”.
In the case of `Nc1nc(O)nc2c1ncn2[C@@H]1O[C@H](COP(=O)(O)OP(=O)(O)OP(=O)(O)O)[C@@H](O)[C@H]1O` [2OH-ATP], the “action potential recording from Drosophila taste neurons, tested at 100 μM; part” value (rat P2X2 [3]) was “several modifications at this position show full (2F-ATP) or partial (2-hydroxy-ATP) agonist activity”.
With `Nc1ncnc2c1ncn2[C@@H]1O[C@H](COP(=O)(O)OP(=O)(O)OP(=O)(O)O)[C@@H](O)[C@H]1O` [ATP] the pEC50 (rat P2X2 [4]) was 5.06, the pEC50 (rat P2X2 [5]) was 3.84 and the “action potential recording from Drosophila taste neurons, 10 μM ATP” value (human P2X2) was “The human P2X2 ortholog was also tested in Drosophila taste neurons ... and it responded to ATP in a similar fashion”.
`Nc1ncnc2c1ncn2[C@@H]1O[C@H](COP(O)(=S)OP(=O)(O)OP(=O)(O)O)[C@@H](O)[C@H]1O` (stereo partly drawn) [ATPαS] was tested, and the “action potential recording from Drosophila taste neurons, tested at 100 μM” value (rat P2X2 [6]) was “Several adenosine nucleotides gave responses as large as ATP, including the previously identified agonists ATPγS and ATPαS”.
With `Nc1ncnc2c1ncn2[C@@H]1O[C@H](CO[P@](=O)(O)O[P@](=O)(O)O[P@@](=O)(O)S)[C@@H](O)[C@H]1O` [ATPγS] the “action potential recording from Drosophila taste neurons, tested at 100 μM” value (rat P2X2 [2]) was “flies expressing rat P2X2^T184I and found that ATPγS, ATPαS and 2F-ATP elicited responses similar to ATP” and the “action potential recording from Drosophila taste neurons, tested at 100 μM” value (rat P2X2 [6]) was “ATPγS and ATPαS have previously been shown to act as agonists ... both were also effective agonists in the Drosophila system”.
